Assay results as given in ChEMBL document CHEMBL3507680, “University of Dundee, Gates Library screen for HepG2 cell viability”.

Assay: Human HepG2 cell viability assay in 384 well format
Assay type: toxicity, cell-based
Set-up: dose 125 nL, time 70.5 hour; concentration not given beside the values
Conditions: HepG2 cells, read-out: Inhibition

Going from CC(C)c1nn(C)c(N(C)C)c1CNCC(O)c1cccc(F)c1 (stereo not given) to Cc1nn(C)c(C)c1CN(C(=O)c1cc(Cl)c[nH]c1=O)C(C)C, the cytotoxicity at 70.5 h falls from -10% to -11%.

Compared with OCC1CCCCN1c1ccc(-c2nc(-c3ccccc3F)no2)cn1 (stereo not given), c1cnnc(N2CCCC2CNCc2cc[nH]n2)c1 (stereo not given) is higher in cytotoxicity at 70.5 h: -24.7% for the first, 11% for the second.

First: O=C(CCN1CCCC(CO)(CC2CC2)C1)NC1CCCCC1 (stereo not given)
Second: Cn1ncc2c(NCCC34CCCN3CCC4)nc(C3CCCC3)nc21
The cytotoxicity at 70.5 h of the first is lower: -25.2% for the first, 5.19% for the second.

Compared with COCC1CN(C(=O)c2ccco2)Cc2nccn2C1 (stereo not given), COc1ccc(CC(=O)N2Cc3nccn3CC(CN(C)C)C2)cc1 (stereo not given) is higher in cytotoxicity at 70.5 h: -9.63% for the first, 20.5% for the second.

Going from Cn1cc(CN2CCn3cc(CNC(=O)CC4CC4)nc3C2)cn1 to CSc1nccc(NCc2cc3n(n2)CCCN(C(=O)C2CCC2)C3)n1, the cytotoxicity at 70.5 h rises from -7.17% to 22.4%.

First: Cc1cc(C)n(CC(C)CNC(=O)[C@@H](C)NC(=O)OC(C)(C)C)n1 (stereo not given in full)
Second: COCc1cc(CN(C)C(C(=O)O)c2cc(C)c(OC)c(C)c2)n[nH]1 (stereo not given)
The cytotoxicity at 70.5 h of the first is lower: -27.5% for the first, -2.3% for the second.

First: CC(NS(=O)(=O)N(C)C)c1cccc(-n2cccn2)c1 (stereo not given)
Second: Cc1ccc(C(C(=O)N2CC(c3ccccn3)C2)N(C)C)cc1 (stereo not given)
The cytotoxicity at 70.5 h of the first is lower: -3.97% for the first, 13% for the second.

Going from CC(C)(C)c1cc2ncn(CCCN3CCCCC3CO)c(=O)c2s1 (stereo not given) to CC(C)(C)c1oc(C(N)=O)cc1CN1CCOC(C(F)(F)F)C1 (stereo not given), the cytotoxicity at 70.5 h rises from -14.7% to 1.68%.

Going from N#Cc1ccc(S(=O)(=O)NC(=O)C2CC2)c(C(F)(F)F)c1 to O=C1CCCN1C(CNS(=O)(=O)C1CC1)Cc1cccc(F)c1 (stereo not given), the cytotoxicity at 70.5 h falls from -13.8% to -15.5%.

Compared with CS(=O)(=O)Nc1ccn(Cc2ccc(Br)cc2)n1, Cn1ccc(C(=O)NCc2cccc(N3CCCCC3=O)c2)cc1=O is higher in cytotoxicity at 70.5 h: -8.91% for the first, -4.99% for the second.

First: O=C(COCC1CC1)Nc1ncccc1I
Second: O=C(c1ccco1)N1CCc2c(COCC3CC3)cncc2C1
The cytotoxicity at 70.5 h of the first is higher: 2.42% for the first, -8.01% for the second.

Going from c1cnc(NCc2ncn3c2CN(Cc2cccnc2)CCC3)nc1 to Fc1ccc(N2CCOC(Cc3cccnc3)C2)cc1 (stereo not given), the cytotoxicity at 70.5 h falls from -2.74% to -9.3%.

Compared with CC(C)CN(Cc1nnc(-c2ccco2)o1)CC(C)C, OCC(O)CSCc1nnc(-c2ccc(Cl)cc2)o1 (stereo not given) is lower in cytotoxicity at 70.5 h: 2.87% for the first, -13.7% for the second.

Compared with O=C1N(Cc2ccc(F)c(F)c2)CCCC12CCN(C1CCSCC1)C2 (stereo not given), CC(Oc1ccc(F)cc1F)C(=O)N1CCC2(CCCO2)CC1 (stereo not given) is higher in cytotoxicity at 70.5 h: 9.34% for the first, 27% for the second.

Going from Cc1ccc(C(=O)N2CC(Oc3ccccc3C)C2)s1 to Cc1nc(NC(=O)CN2C(=O)c3ccccc3NC2C(C)C)sc1C (stereo not given), the cytotoxicity at 70.5 h rises from -12.1% to -11.4%.

First: Cc1cc(C(F)(F)F)nc(N(C)Cc2c(C)noc2C)n1
Second: CCOc1ccc(CN(CC)C(=O)c2ccc(C)[nH]c2=O)cc1OC
The cytotoxicity at 70.5 h of the first is higher: 13.3% for the first, -0.243% for the second.

Compared with Cc1ccc(N2CC[C@H]3O[C@H](C(=O)NCc4ccco4)CC[C@H]32)nn1, Cc1cccc(-c2nnn3c2COC(CNS(=O)(=O)C2CC2)C3)c1 (stereo not given) is higher in cytotoxicity at 70.5 h: -18.3% for the first, -9.41% for the second.

First: O=C([C@H]1C[C@H]2OCC[C@H]2N(C(=O)c2ccncc2)C1)N1CCCCO1
Second: O=C(NCCC(=O)N1CCCC1)C(OC1CCCC1)c1ccccc1 (stereo not given)
The cytotoxicity at 70.5 h of the first is lower: 3.71% for the first, 34.3% for the second.

Going from CC1CCN(C(=O)Cn2cc(I)cn2)CC1 to CC(=O)N1CCN(C(=O)CNc2ccc3sccc3c2)CC1, the cytotoxicity at 70.5 h falls from 0.739% to -4.15%.

First: Cn1nnc2c1CCN(Cc1ccncc1)C2COCc1ccccc1 (stereo not given)
Second: OCCN1CC2(CCN(c3ccccc3)C2)C1
The cytotoxicity at 70.5 h of the first is lower: -6.13% for the first, 0.92% for the second.

First: Cc1ccc(C#N)c(N2CCC3(CCC(=O)N(CC(N)=O)C3)CC2)n1
Second: CC(C)Nc1ccc2nc(C3CCN(C(C)C)CC3)nn2c1
The cytotoxicity at 70.5 h of the first is lower: -9.24% for the first, -2.64% for the second.

Compared with NC(=O)Nc1ccc(C(=O)NCCn2cccc2)cc1, O=C(NCc1cccs1)c1nc2c(o1)CN(C(=O)c1cccnc1)C2 is higher in cytotoxicity at 70.5 h: -11.7% for the first, 7.5% for the second.

COc1ccc(C(CO)NC(=O)Nc2cccc(C#N)c2)cc1 (stereo not given) showed a cytotoxicity at 70.5 h of -8.65%.
